In BigSolDB 2.1:

O=Cc1ccc(O)cc1
Conditions | solubility (mole fraction)
in 1,4-dioxane, 283.15 K | 0.0467
in 1,4-dioxane, 285.65 K | 0.0555
in 1,4-dioxane, 288.15 K | 0.0655
in 1,4-dioxane, 290.65 K | 0.0772
in 1,4-dioxane, 293.15 K | 0.0905
in 1,4-dioxane, 295.65 K | 0.106
in 1,4-dioxane, 298.15 K | 0.123
in 1,4-dioxane, 300.65 K | 0.141
in 1,4-dioxane, 303.15 K | 0.163
in 1,4-dioxane, 305.65 K | 0.186
in 1,4-dioxane, 308.15 K | 0.211
in 1,4-dioxane, 310.65 K | 0.238
in 1,4-dioxane, 313.15 K | 0.267
in 1,4-dioxane, 315.65 K | 0.299
in 1,4-dioxane, 318.15 K | 0.334
in 2-butanone, 278.15 K | 0.0731
in 2-butanone, 280.65 K | 0.0822
in 2-butanone, 283.15 K | 0.0911
in 2-butanone, 285.65 K | 0.101
in 2-butanone, 288.15 K | 0.111
in 2-butanone, 290.65 K | 0.123
in 2-butanone, 293.15 K | 0.135
in 2-butanone, 295.65 K | 0.148
in 2-butanone, 298.15 K | 0.163
in 2-butanone, 300.65 K | 0.177
in 2-butanone, 303.15 K | 0.194
in 2-butanone, 305.65 K | 0.21
in 2-butanone, 308.15 K | 0.229
in 2-butanone, 310.65 K | 0.247
in 2-butanone, 313.15 K | 0.267
in 2-butanone, 315.65 K | 0.288
in 2-butanone, 318.15 K | 0.309
in DMF, 278.15 K | 0.0741
in DMF, 280.65 K | 0.0863
in DMF, 283.15 K | 0.0997
in DMF, 285.65 K | 0.114
in DMF, 288.15 K | 0.131
in DMF, 290.65 K | 0.148
in DMF, 293.15 K | 0.168
in DMF, 295.65 K | 0.191
in DMF, 298.15 K | 0.214
in DMF, 300.65 K | 0.241
in DMF, 303.15 K | 0.27
in DMF, 305.65 K | 0.302
in DMF, 308.15 K | 0.338
in DMF, 310.65 K | 0.376
in DMF, 313.15 K | 0.416
in DMF, 315.65 K | 0.458
in DMF, 318.15 K | 0.504
in acetone, 278.15 K | 0.0713
in acetone, 280.65 K | 0.0796
in acetone, 283.15 K | 0.0889
in acetone, 285.65 K | 0.0986
in acetone, 288.15 K | 0.109
in acetone, 290.65 K | 0.12
in acetone, 293.15 K | 0.133
in acetone, 295.65 K | 0.145
in acetone, 298.15 K | 0.159
in acetone, 300.65 K | 0.174
in acetone, 303.15 K | 0.189
in acetone, 305.65 K | 0.205
in acetone, 308.15 K | 0.222
in acetone, 310.65 K | 0.24
in acetone, 313.15 K | 0.259
in acetone, 315.65 K | 0.279
in acetone, 318.15 K | 0.299
in acetonitrile, 278.15 K | 0.0318
in acetonitrile, 280.65 K | 0.036
in acetonitrile, 283.15 K | 0.0405
in acetonitrile, 285.65 K | 0.0454
in acetonitrile, 288.15 K | 0.0508
in acetonitrile, 290.65 K | 0.0567
in acetonitrile, 293.15 K | 0.0632
in acetonitrile, 295.65 K | 0.0704
in acetonitrile, 298.15 K | 0.0782
in acetonitrile, 300.65 K | 0.0867
in acetonitrile, 303.15 K | 0.0957
in acetonitrile, 305.65 K | 0.106
in acetonitrile, 308.15 K | 0.116
in acetonitrile, 310.65 K | 0.128
in acetonitrile, 313.15 K | 0.14
in acetonitrile, 315.65 K | 0.154
in acetonitrile, 318.15 K | 0.168
in ethanol, 278.15 K | 0.043
in ethanol, 280.65 K | 0.0493
in ethanol, 283.15 K | 0.0563
in ethanol, 285.65 K | 0.0639
in ethanol, 288.15 K | 0.0725
in ethanol, 290.65 K | 0.0815
in ethanol, 293.15 K | 0.0914
in ethanol, 295.65 K | 0.102
in ethanol, 298.15 K | 0.115
in ethanol, 300.65 K | 0.128
in ethanol, 303.15 K | 0.142
in ethanol, 305.65 K | 0.156
in ethanol, 308.15 K | 0.173
in ethanol, 310.65 K | 0.191
in ethanol, 313.15 K | 0.209
in ethanol, 315.65 K | 0.227
in ethanol, 318.15 K | 0.247
in ethyl acetate, 278.15 K | 0.0708
in ethyl acetate, 280.65 K | 0.0787
in ethyl acetate, 283.15 K | 0.0877
in ethyl acetate, 285.65 K | 0.0968
in ethyl acetate, 288.15 K | 0.106
in ethyl acetate, 290.65 K | 0.117
in ethyl acetate, 293.15 K | 0.129
in ethyl acetate, 295.65 K | 0.141
in ethyl acetate, 298.15 K | 0.155
in ethyl acetate, 300.65 K | 0.169
in ethyl acetate, 303.15 K | 0.184
in ethyl acetate, 305.65 K | 0.2
in ethyl acetate, 308.15 K | 0.216
in ethyl acetate, 310.65 K | 0.234
in ethyl acetate, 313.15 K | 0.251
in ethyl acetate, 315.65 K | 0.272
in ethyl acetate, 318.15 K | 0.293
in isopropanol, 278.15 K | 0.0535
in isopropanol, 280.65 K | 0.0607
in isopropanol, 283.15 K | 0.0683
in isopropanol, 285.65 K | 0.0773
in isopropanol, 288.15 K | 0.0868
in isopropanol, 290.65 K | 0.0972
in isopropanol, 293.15 K | 0.109
in isopropanol, 295.65 K | 0.121
in isopropanol, 298.15 K | 0.134
in isopropanol, 300.65 K | 0.148
in isopropanol, 303.15 K | 0.164
in isopropanol, 305.65 K | 0.18
in isopropanol, 308.15 K | 0.198
in isopropanol, 310.65 K | 0.218
in isopropanol, 313.15 K | 0.238
in isopropanol, 315.65 K | 0.259
in isopropanol, 318.15 K | 0.281
in methanol, 278.15 K | 0.0342
in methanol, 280.65 K | 0.0392
in methanol, 283.15 K | 0.0449
in methanol, 285.65 K | 0.0516
in methanol, 288.15 K | 0.0587
in methanol, 290.65 K | 0.0668
in methanol, 293.15 K | 0.076
in methanol, 295.65 K | 0.0858
in methanol, 298.15 K | 0.0969
in methanol, 300.65 K | 0.109
in methanol, 303.15 K | 0.121
in methanol, 305.65 K | 0.136
in methanol, 308.15 K | 0.151
in methanol, 310.65 K | 0.168
in methanol, 313.15 K | 0.186
in methanol, 315.65 K | 0.205
in methanol, 318.15 K | 0.224
in n-butanol, 278.15 K | 0.0545
in n-butanol, 280.65 K | 0.0615
in n-butanol, 283.15 K | 0.0692
in n-butanol, 285.65 K | 0.0775
in n-butanol, 288.15 K | 0.0864
in n-butanol, 290.65 K | 0.0963
in n-butanol, 293.15 K | 0.107
in n-butanol, 295.65 K | 0.118
in n-butanol, 298.15 K | 0.13
in n-butanol, 300.65 K | 0.143
in n-butanol, 303.15 K | 0.157
in n-butanol, 305.65 K | 0.171
in n-butanol, 308.15 K | 0.187
in n-butanol, 310.65 K | 0.203
in n-butanol, 313.15 K | 0.22
in n-butanol, 315.65 K | 0.239
in n-butanol, 318.15 K | 0.259
in n-propanol, 278.15 K | 0.0532
in n-propanol, 280.65 K | 0.0597
in n-propanol, 283.15 K | 0.0669
in n-propanol, 285.65 K | 0.0751
in n-propanol, 288.15 K | 0.0836
in n-propanol, 290.65 K | 0.093
in n-propanol, 293.15 K | 0.103
in n-propanol, 295.65 K | 0.114
in n-propanol, 298.15 K | 0.125
in n-propanol, 300.65 K | 0.138
in n-propanol, 303.15 K | 0.151
in n-propanol, 305.65 K | 0.165
in n-propanol, 308.15 K | 0.18
in n-propanol, 310.65 K | 0.196
in n-propanol, 313.15 K | 0.213
in n-propanol, 315.65 K | 0.23
in n-propanol, 318.15 K | 0.249
in toluene, 278.15 K | 0.000979
in toluene, 280.65 K | 0.00109
in toluene, 283.15 K | 0.00119
in toluene, 285.65 K | 0.00133
in toluene, 288.15 K | 0.00146
in toluene, 290.65 K | 0.00162
in toluene, 293.15 K | 0.00178
in toluene, 295.65 K | 0.00197
in toluene, 298.15 K | 0.00217
in toluene, 300.65 K | 0.00236
in toluene, 303.15 K | 0.00259
in toluene, 305.65 K | 0.00283
in toluene, 308.15 K | 0.00309
in toluene, 310.65 K | 0.0034
in toluene, 313.15 K | 0.00367
in toluene, 315.65 K | 0.00399
in toluene, 318.15 K | 0.00435
